Experimental data from paper PMC12655819 (Pharmaceuticals, 2025).
Like-named read-outs stand apart in the source and are kept apart here. Marks after values point to notes of the source that are not given here.

Test: Pharmacokinetics from total plasma levels (tMPA, tMPAG), LC-MS/MS
Assay type: in vivo, human
Details: total plasma level; for Cmax: pediatric renal transplant recipients (n = 20) on MMF (CellCept), steady state, 0–4 h post-dose; for AUC(0–4) Normalized to Drug Dose: normalized to MMF dose
Description: The AUC0–4, Tmax, and Cmax parameters were calculated using the R (version 4.5.1) package software (R Core Team, 2025), supported by RStudio (version 2025.05.1+513) from Posit PBC software (Boston, MA, USA). […] The vMPA and vMPAG capillary blood levels were corrected using formulas validated in our department (partially published by Kocur et al.) and expressed as estimated capillary plasma concentrations. […] Individual PK profiles for each patient included in the study are provided in the Supplementary File (Figures S4 and S5).
Briefly, 50 μL of plasma was diluted with 90 μL of deionized water, and 10 μL of IS (d3-MPA) was added. Next, 400 μL of the precipitation mixture (a 0.1 M aqueous zinc sulfate solution and acetonitrile, 50:50 (v/v)) was added. The sample was then shaken for 10 min at room temperature using an automatic rotary vortex (Ohaus, Parsippany, NJ, USA) and centrifuged for 10 min at 13,500× g at 4 °C thereafter. The supernatant was transferred into chromatographic vials and analyzed using LC-MS/MS. Sample processing was performed at the Department of Drug Chemistry, Pharmaceutical and Biomedical Analysis, Medical University of Warsaw, Poland.
From each patient (if they consented to all sampling types), four samples were collected simultaneously at all defined time points of the dynamic PK profile (0, 0.5, 1, 2, and 4 h after drug administration). Whole blood was collected using standard venipuncture by a phlebotomist into a K3-EDTA test tube (Sarstedt, Nümbrecht, Germany). Plasma for analytical determination was obtained by centrifuging a portion of the whole blood and stored at −40 °C until assay. At the same time, 10 µL capillary blood samples were collected from a finger prick using the Mitra™ device (VAMS samples were stored in light-protected aluminum zip bags with desiccant at room temperature).

[1] = pediatric renal transplant recipients (n = 20) on MMF, mean (range)

SMILES	Tmax (human, plasma, pediatric renal transplant recipients (n = 20) on MMF, mean (range), read-out: Tmax)	concentration at 0 h (human, 0 h (pre-dose), n = 20, mean ± SD, read-out: C0 concentration)	concentration at 0.5 h (human, 0.5 h post-dose, n = 20, mean ± SD, read-out: C0.5 concentration)	concentration at 1 h (human, 1 h post-dose, n = 20, mean ± SD, read-out: C1 concentration)	concentration at 2 h (human, 2 h post-dose, n = 20, mean ± SD, read-out: C2 concentration)	concentration at 4 h (human, 4 h post-dose, n = 20, mean ± SD, read-out: C4 concentration)	Cmax (human, mean (range), read-out: Cmax)	AUC(0-t) (human, pediatric renal transplant recipients (n = 20) on MMF, mean (range))	AUC(0–4) Normalized to Drug Dose (n = 20, mean (range))	Tmax (pediatric renal transplant recipients (n = 20) on MMF, mean (range), listed as tMPA)	C0 concentration (0 h (pre-dose), n = 20, mean ± SD)	C0.5 concentration (0.5 h post-dose, n = 20, mean ± SD)	C1 concentration (1 h post-dose, n = 20, mean ± SD)	C2 concentration (2 h post-dose, n = 20, mean ± SD)	C4 concentration (4 h post-dose, n = 20, mean ± SD)	Cmax (mean (range))	AUC(0–4) [1]	Tmax [1]
COc1c(C)c2c(c(O)c1C/C=C(\C)CCC(=O)O)C(=O)OC2 [MPA, Mycophenolic acid]	30 to 60 min	2150 ± 1620 ng/mL	10700 ± 9560 ng/mL	11400 ± 6810 ng/mL	4680 ± 3410 ng/mL	2230 ± 2390 ng/mL	14400 ng/mL	23.8 mg·h/L	83.67 (22.44–447.22) ^d mg × h/mL × g	0.78 (0.50–1.00) h								
COc1c(C)c2c(c(O[C@@H]3O[C@H](C(=O)O)[C@@H](O)[C@H](O)[C@H]3O)c1C/C=C(\C)CCC(=O)O)C(=O)OC2 [MPAG, mycophenolic acid glucuronide]									384.94 (106.81–1050.08) ^d mg × h/mL × g		23.805 ± 12.32 mg/L	37.800 ± 17.081 mg/L	48.647 ± 22.134 mg/L	34.258 ± 13.977 mg/L	27.075 ± 12.413 mg/L	49.54 (19.24–109.28) mg/L	144 mg·h/L	1.33 (0.50–2.00) h
